Results on 16 compounds are retold here after paper PMC3410885, “6-Arylpyrido[2,3-d]pyrimidines as Novel ATP-Competitive Inhibitors of Bacterial D-Alanine:D-Alanine Ligase” (PLoS ONE, 2012).

One series addresses T1, E. coli DdlB (Escherichia coli, UniProt P07862).
T1 construct: polyhistidine (His) tag (N); made in house; host or cells: E. coli BL21(λDE3), vector pQE-30 UA (Qiagen)
As to the kind of experiment: Colorimetric malachite green inhibition assay of DdlB. The series is classed as biochemical. The following applies: for pIC50: malachite green assay, 700 μM D-Ala, 500 μM ATP, 37°C, 20 min, read-out: inhibitory activity on DdlB: IC50. How it is done: All of the synthesized 6-arylpyrido[2,3-d]pyrimidines 11–36 were assayed for in vitro inhibitory activity on E. coli DdlB by detecting orthophosphate generated during the enzymatic reaction using a Malachite green assay.
Inhibition of DdlB was measured at different inhibitor and ATP concentrations in order to determine Ki values and the mode-of-action of both compounds.
The target compounds were tested for their ability to inhibit the D-Ala-adding activity of DdlB ligase with the colorimetric malachite green method in which orthophosphate generated during the reaction is measured. Each compound was tested in duplicate at 100, 250 or 500 μM in a mixture, final volume 50 μL, containing 50 mM Hepes (pH 8.0), 5 mM MgCl2, 10 mM (NH4)2SO4, 10 mM KCl, 700 μM D-Ala, 500 μM ATP, purified His-tagged DdlB (diluted in 50 mM Hepes (pH 7.2) and 1 mM DTT) and the test compound dissolved in DMSO. The final concentration of DMSO was 5% (v/v). The reaction mixture was incubated at 37°C for 20 min, then quenched with 100 μL of Biomol reagent and absorbance at 650 nm was measured after 5 min. To exclude possible promiscuous inhibitors, all compounds were tested in the presence of Triton-114 (0.005%). Residual activities were calculated relative to control assays without the compounds and with DMSO.

The subject of another series is E. coli 1411. As to the kind of experiment: MIC by broth microdilution, E. coli 1411. The series is classed as cell-based. The following applies: for MIC: Escherichia coli, 1411, read-out: MIC 1411; for MIC 1411 +PMBN: with polymyxin B nonapeptide (4 μg/ml). The procedure: (§1) Selected DdlB inhibitors were tested for their antibacterial activity against two E. coli strains E. coli 1411 and E. coli AB734 (Table 2). […] Additionally, growth inhibition of efflux pump-deficient strains SM1411 (acrAB deficient derivative of 1411) and ES100 (tolC deficient derivative of AB734) was measured, and MICs were repeated for each strain in the presence of polymyxin B nonapeptide (PMBN) to assess the impact of outer-membrane permeability on antimicrobial activity.
(§2) Minimum inhibitory concentrations (MICs) were determined by broth microdilution against E. coli 1411, SM1411 (acrAB deficient derivative of 1411), AB734 and ES100 (tolC deficient derivative of AB734) according to CLSI guidelines. MICs were repeated for each strain in the presence of polymyxin B nonapeptide (4 μg/ml) to assess the impact of outer-membrane permeability on antimicrobial activity.
A general note: Broth dilution looks for growth in wells or tubes with falling amounts of substance.

The subject of series [1] is ES100 (tolC deficient derivative of AB734). Description: MIC by broth microdilution, ES100. The series is classed as cell-based, E. coli. Conditions: for MIC: Escherichia coli, read-out: MIC ES100 (tolC); for MIC ES100 +PMBN: with polymyxin B nonapeptide (4 μg/ml). How it is done:
as §1, §2

The next series relates to E. coli AB734. Description: MIC by broth microdilution, E. coli AB734. The following applies: for MIC: Escherichia coli, AB734, read-out: MIC AB734; for MIC AB734 +PMBN: with polymyxin B nonapeptide (4 μg/ml). The series is classed as cell-based. How it is done: as §1, §2
For series [2], the system named is SM1411 (acrAB deficient derivative of 1411). Description: MIC by broth microdilution, SM1411. The series is classed as cell-based, E. coli. Conditions: for MIC: Escherichia coli, read-out: MIC SM1411 (acrAB); for MIC SM1411 +PMBN: with polymyxin B nonapeptide (4 μg/ml). How it is done:
as §1, §2

The subject of series [3] is E. coli strains (1411, AB734, SM1411, ES100). As to the kind of experiment: Antibacterial activity stated for the E. coli strains together. Conditions: for antibacterial activity (in words): efflux-deficient, permeabilised cells. The series is classed as cell-based. The procedure: as §1, §2

Molecules are shown by their SMILES. pIC50: −log10 of the molar value. Values after ≈ are worked out from the molar mass of the structure shown.

Broadly, the pIC50 is −log10 of the IC50, conventionally taken in molar units. As to `COc1cc(OC)cc(-c2cc3cnc(N)nc3nc2N)c1` [Compound 13, 6-(3,5-dimethoxyphenyl)pyrido[2,3-d]pyrimidine-2,7-diamine], the pIC50 at E. coli DdlB was 3.04. Further, in the series on E. coli 1411, the MIC is > 256 µg/mL and the “MIC 1411 +PMBN” value was >256 µg/mL. Also, in series [1], the MIC is > 256 µg/mL and the “MIC ES100 +PMBN” value was found to be 64 µg/mL (≈ 215 µM). In the series on E. coli AB734, the MIC is > 256 µg/mL and the “MIC AB734 +PMBN” value was >256 µg/mL. Besides, in series [2], the MIC is > 256 µg/mL and the “MIC SM1411 +PMBN” value came out at 128 µg/mL (≈ 431 µM).
The term melting point denotes the temperature of the solid-liquid transition. The compound `COc1cc(OC)cc(-c2cc3cnc(NCCCN4CCOCC4)nc3nc2N)c1` [Compound 15, 6-(3,5-dimethoxyphenyl)-N2-(3-morpholinopropyl)pyrido[2,3-d]pyrimidine-2,7-diamine] came in with a melting point of 146 to 148 °C.
Regarding `COc1cc(OC)cc(-c2cc3cnc(NCCCN4CCOCC4)nc3nc2NC(=O)NC(C)(C)C)c1` [Compound 16, 1-tert-butyl-3-(6-(3,5-dimethoxyphenyl)-2-(3-morpholinopropylamino)pyrido[2,3-d]pyrimidin-7-yl)urea], the pIC50 on E. coli DdlB is 3.88. For the same compound, the “fold improved IC50 against DdlB compared to lead compound 33” value at E. coli DdlB (ratio of IC50 values, 16 against 33) came to 3.4 fold. For the same compound, in the series on E. coli 1411, the MIC is > 256 µg/mL and the “MIC 1411 +PMBN” value is >256 µg/mL. In addition, in series [1], the MIC is > 256 µg/mL and the “MIC ES100 +PMBN” value was 128 µg/mL (≈ 244 µM). In addition, in the series with E. coli AB734, the MIC is > 256 µg/mL and the “MIC AB734 +PMBN” value was >256 µg/mL. Moreover, in series [2], the MIC was > 256 µg/mL and the “MIC SM1411 +PMBN” value stood at 128 µg/mL (≈ 244 µM). Besides, the “antibacterial activity (in words)” value in series [3] is recorded as “weak antibacterial activity”.
Compound `COc1cc(OC)cc(-c2cc3cnc(NCCCN(C)C)nc3nc2N)c1` [Compound 17, 6-(3,5-dimethoxyphenyl)-N2-(3-(dimethylamino)propyl)pyrido[2,3-d]pyrimidine-2,7-diamine] registered a melting point of 92 to 95 °C.
The same measure, in the same setting: the result for `Nc1ncc2cc(-c3cc(C(F)(F)F)cc(C(F)(F)F)c3)c(N)nc2n1` [Compound 18, 6-(3,5-bis(trifluoromethyl)phenyl)pyrido[2,3-d]pyrimidine-2,7-diamine] reads > 300 °C.
Consider `CC(C)(C)NC(=O)Nc1nc2nc(N)ncc2cc1-c1cc(C(F)(F)F)cc(C(F)(F)F)c1` [Compound 19, 1-(2-amino-6-(3,5-bis(trifluoromethyl)phenyl)pyrido[2,3-d]pyrimidin-7-yl)-3-tert-butylurea], for which the pIC50 on E. coli DdlB was 3.59. Also, in the series on E. coli 1411, the MIC was > 256 µg/mL and the “MIC 1411 +PMBN” value was >256 µg/mL. For the same compound, in series [1], the MIC is > 256 µg/mL and the “MIC ES100 +PMBN” value came out at 64 µg/mL (≈ 135 µM). In the series on E. coli AB734, the MIC was > 256 µg/mL and the “MIC AB734 +PMBN” value was >256 µg/mL. Moreover, in series [2], the MIC was > 256 µg/mL and the “MIC SM1411 +PMBN” value is >256 µg/mL. Further, the “antibacterial activity (in words)” value in series [3] was “weak antibacterial activity”.
Regarding `Nc1ncc2cc(-c3cc(F)cc(F)c3)c(N)nc2n1` [Compound 20, 6-(3,5-difluorophenyl)pyrido[2,3-d]pyrimidine-2,7-diamine], the melting point is > 300 °C.
`Nc1ncc2cc(-c3cc(Cl)cc(Cl)c3)c(N)nc2n1` [Compound 22, 6-(3,5-dichlorophenyl)pyrido[2,3-d]pyrimidine-2,7-diamine]: the melting point is > 300 °C. For the same compound, the MIC in series [3] (Escherichia coli, read-out: MICs against all strains) is > 256 µg/mL.
On to `CC(C)(C)NC(=O)Nc1nc2nc(N)ncc2cc1-c1cc(Cl)cc(Cl)c1` [Compound 23, 1-(2-amino-6-(3,5-dichlorophenyl)pyrido[2,3-d]pyrimidin-7-yl)-3-tert-butylurea], for which the melting point was 179 to 182 °C. In addition, the pIC50 on E. coli DdlB is 3.42. In addition, in the series with E. coli 1411, the MIC is > 256 µg/mL and the “MIC 1411 +PMBN” value was >256 µg/mL. Moreover, in series [1], the MIC was > 256 µg/mL and the “MIC ES100 +PMBN” value amounted to 16 µg/mL (≈ 39.5 µM). Further, in the series on E. coli AB734, the MIC is > 256 µg/mL and the “MIC AB734 +PMBN” value is >256 µg/mL. In series [2], the MIC is > 256 µg/mL and the “MIC SM1411 +PMBN” value came out at 32 µg/mL (≈ 79 µM). Besides, the “antibacterial activity (in words)” value in series [3] is reported as “weak antibacterial activity”.
For `Nc1ncc2cc(-c3c(Cl)cccc3Cl)c(N)nc2n1` [Compound 26, 6-(2,6-dichlorophenyl)pyrido[2,3-d]pyrimidine-2,7-diamine], the negative-log IC50 (pIC50) on E. coli DdlB was 3.28. Further, in series [1], the MIC is 1 µg/mL (≈ 3.27 µM) and the “MIC ES100 +PMBN” value was 0,25 μg/ml. Moreover, in series [2], the MIC was determined as 2 µg/mL (≈ 6.53 µM) and the “MIC SM1411 +PMBN” value is 0,5 μg/ml.
The compound `Nc1nc2nc(NCCCN3CCOCC3)ncc2cc1-c1c(Cl)cccc1Cl` [Compound 28, 6-(2,6-dichlorophenyl)-N2-(3-morpholinopropyl)pyrido[2,3-d]pyrimidine-2,7-diamine] displayed a melting point of 124 to 127 °C.
Still for that read-out and setting: the result for `CN(C)CCCNc1ncc2cc(-c3c(Cl)cccc3Cl)c(N)nc2n1` [Compound 30, 6-(2,6-dichlorophenyl)-N2-(3-(dimethylamino)propyl)pyrido[2,3-d]pyrimidine-2,7-diamine] reads 241 to 244 °C.
On the same count and under the same terms, the value for `Nc1ncc2cc(-c3c(F)cccc3Cl)c(N)nc2n1` [Compound 31, 6-(2-chloro-6-fluorophenyl)pyrido[2,3-d]pyrimidine-2,7-diamine] was > 300 °C.
The same measure, in the same setting: the result for `CC(C)(C)NC(=O)Nc1nc2nc(N)ncc2cc1-c1c(F)cccc1Cl` [Compound 32, 1-(2-amino-6-(2-chloro-6-fluorophenyl)pyrido[2,3-d]pyrimidin-7-yl)-3-tert-butylurea] reads > 300 °C.
For the compound `CC(C)(C)NC(=O)Nc1nc2nc(N)ncc2cc1-c1c(Br)cccc1Br` [Compound 34, 1-(2-amino-6-(2,6-dibromophenyl)pyrido[2,3-d]pyrimidin-7-yl)-3-tert-butylurea], at E. coli DdlB, the pIC50 was 3.23. In addition, in the series on E. coli 1411, the MIC was > 256 µg/mL and the “MIC 1411 +PMBN” value is 32 µg/mL (≈ 64.8 µM). Also, in series [1], the MIC was found to be 4 µg/mL (≈ 8.09 µM) and the “MIC ES100 +PMBN” value is listed as 0,5 μg/ml. Moreover, in the series with E. coli AB734, the MIC is > 256 µg/mL and the “MIC AB734 +PMBN” value is 32 µg/mL (≈ 64.8 µM). Also, in series [2], the MIC is > 256 µg/mL and the “MIC SM1411 +PMBN” value came out at 4 µg/mL (≈ 8.09 µM). The “antibacterial activity (in words)” value in series [3] was “weak antibacterial activity”.
With `CC(C)(C)NC(=O)Nc1nc2nc(N)ncc2cc1-c1ccc2c(c1)OCO2` [Compound 36, 1-(2-amino-6-(benzo[d][1,3]dioxol-5-yl)pyrido[2,3-d]pyrimidin-7-yl)-3-tert-butylurea], the melting point is > 300 °C.
